The text below walks through data of paper PMC9056855 (RSC Advances, 2020).

Holding throughout (type): biochemical
For one data set, the target named is T1, CYP1A2 (Homo sapiens, UniProt P05177).
T1 sequence (P05177 2-516): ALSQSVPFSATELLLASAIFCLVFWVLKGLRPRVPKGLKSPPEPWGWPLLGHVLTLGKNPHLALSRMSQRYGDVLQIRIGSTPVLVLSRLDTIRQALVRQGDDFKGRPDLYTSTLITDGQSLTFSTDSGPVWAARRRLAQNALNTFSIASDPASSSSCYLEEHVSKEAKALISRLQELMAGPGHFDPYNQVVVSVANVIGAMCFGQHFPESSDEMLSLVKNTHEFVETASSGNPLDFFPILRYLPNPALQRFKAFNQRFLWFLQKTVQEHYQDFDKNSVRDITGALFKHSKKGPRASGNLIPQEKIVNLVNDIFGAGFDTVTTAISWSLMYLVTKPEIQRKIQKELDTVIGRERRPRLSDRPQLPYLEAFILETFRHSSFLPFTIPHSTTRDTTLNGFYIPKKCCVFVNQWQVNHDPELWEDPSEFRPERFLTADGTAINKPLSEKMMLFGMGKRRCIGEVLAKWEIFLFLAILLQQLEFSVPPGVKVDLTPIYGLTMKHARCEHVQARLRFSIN
In words: probe substrate turnover, UHPLC.

In data set [1] the target is T2, UGT1A9 (Homo sapiens, UniProt O60656).
T2 sequence (O60656 26-530): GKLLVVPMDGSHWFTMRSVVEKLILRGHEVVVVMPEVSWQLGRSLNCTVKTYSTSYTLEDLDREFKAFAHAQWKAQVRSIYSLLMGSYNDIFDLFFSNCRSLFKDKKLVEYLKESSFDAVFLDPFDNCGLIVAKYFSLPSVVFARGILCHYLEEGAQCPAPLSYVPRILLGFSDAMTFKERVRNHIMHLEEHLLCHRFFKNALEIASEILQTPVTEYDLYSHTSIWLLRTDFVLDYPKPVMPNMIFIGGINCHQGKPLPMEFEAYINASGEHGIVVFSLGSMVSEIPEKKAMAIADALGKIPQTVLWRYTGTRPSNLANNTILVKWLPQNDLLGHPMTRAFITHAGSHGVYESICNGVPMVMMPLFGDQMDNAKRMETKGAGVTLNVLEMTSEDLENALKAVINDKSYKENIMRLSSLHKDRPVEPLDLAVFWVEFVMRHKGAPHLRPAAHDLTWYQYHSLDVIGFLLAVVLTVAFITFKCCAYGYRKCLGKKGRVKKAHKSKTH
Nature of the data set: probe substrate turnover, UHPLC.

Data set [2] has as its target T3, CYP2C19 (Homo sapiens, UniProt P33261). In words: inhibition kinetics, nonlinear fit, Dixon plot, UHPLC.
For data set [3], the target named is T4, CYP2C9 (Homo sapiens, UniProt P11712). In words: probe substrate turnover, UHPLC.
The target of the next data set is CYP2E1 (Homo sapiens, UniProt P05181). Nature of the data set: probe substrate turnover, UHPLC.
Another data set deals with T5, UGT1A1 (Homo sapiens, UniProt P22309).
T5 sequence (P22309 26-533): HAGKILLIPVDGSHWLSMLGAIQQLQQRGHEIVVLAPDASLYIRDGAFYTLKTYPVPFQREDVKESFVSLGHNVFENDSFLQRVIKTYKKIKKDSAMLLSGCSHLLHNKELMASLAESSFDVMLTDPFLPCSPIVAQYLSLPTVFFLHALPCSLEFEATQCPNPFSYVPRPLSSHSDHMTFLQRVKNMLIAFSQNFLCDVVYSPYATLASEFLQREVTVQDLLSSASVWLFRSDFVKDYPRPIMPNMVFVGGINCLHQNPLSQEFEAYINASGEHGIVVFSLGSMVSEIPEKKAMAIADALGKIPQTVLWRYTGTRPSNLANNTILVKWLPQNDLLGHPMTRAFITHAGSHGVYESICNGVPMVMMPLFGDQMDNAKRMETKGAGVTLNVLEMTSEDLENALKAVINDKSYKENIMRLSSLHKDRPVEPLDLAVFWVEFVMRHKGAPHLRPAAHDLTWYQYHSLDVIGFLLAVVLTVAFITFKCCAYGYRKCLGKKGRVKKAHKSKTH
In words: probe substrate turnover, UHPLC.

The target of data set [4] is T6, CYP2B6 (Homo sapiens, UniProt P20813).
T6 sequence (P20813 1-491): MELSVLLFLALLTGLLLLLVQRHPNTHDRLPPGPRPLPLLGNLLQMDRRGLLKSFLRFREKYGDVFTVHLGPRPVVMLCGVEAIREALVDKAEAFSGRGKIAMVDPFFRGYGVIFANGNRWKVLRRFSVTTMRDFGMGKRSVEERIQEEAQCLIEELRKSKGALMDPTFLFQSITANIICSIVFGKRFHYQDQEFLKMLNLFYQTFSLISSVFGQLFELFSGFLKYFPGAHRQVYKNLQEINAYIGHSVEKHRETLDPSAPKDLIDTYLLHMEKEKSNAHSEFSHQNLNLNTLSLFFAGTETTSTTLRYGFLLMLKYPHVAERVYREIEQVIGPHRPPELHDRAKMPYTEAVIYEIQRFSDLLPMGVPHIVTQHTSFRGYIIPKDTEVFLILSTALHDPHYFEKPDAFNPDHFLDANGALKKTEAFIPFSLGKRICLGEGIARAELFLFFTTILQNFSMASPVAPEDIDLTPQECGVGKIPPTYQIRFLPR
In words: probe substrate turnover, UHPLC.

Another data set addresses T7, CYP2C8 (Homo sapiens, UniProt P10632).
T7 sequence (P10632 1-490): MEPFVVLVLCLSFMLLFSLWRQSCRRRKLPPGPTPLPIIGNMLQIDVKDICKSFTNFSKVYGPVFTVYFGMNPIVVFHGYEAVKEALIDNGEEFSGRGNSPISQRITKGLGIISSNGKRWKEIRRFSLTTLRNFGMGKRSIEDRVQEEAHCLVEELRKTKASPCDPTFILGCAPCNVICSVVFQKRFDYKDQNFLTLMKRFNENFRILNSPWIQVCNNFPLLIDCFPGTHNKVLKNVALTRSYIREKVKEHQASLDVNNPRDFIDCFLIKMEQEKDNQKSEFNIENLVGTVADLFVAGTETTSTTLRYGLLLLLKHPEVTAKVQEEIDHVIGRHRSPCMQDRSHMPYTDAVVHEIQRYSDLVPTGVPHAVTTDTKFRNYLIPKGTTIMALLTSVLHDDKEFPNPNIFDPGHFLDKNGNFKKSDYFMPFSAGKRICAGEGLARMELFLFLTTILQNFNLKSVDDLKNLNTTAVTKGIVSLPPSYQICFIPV
Nature of the data set: probe substrate turnover, UHPLC.

For data set [5], the target named is T6, CYP2B6. In words: inhibition kinetics, nonlinear fit, Dixon plot, UHPLC.
In data set [6] the target is T8, UGT2B7 (Homo sapiens, UniProt P16662).
T8 sequence (P16662 24-529): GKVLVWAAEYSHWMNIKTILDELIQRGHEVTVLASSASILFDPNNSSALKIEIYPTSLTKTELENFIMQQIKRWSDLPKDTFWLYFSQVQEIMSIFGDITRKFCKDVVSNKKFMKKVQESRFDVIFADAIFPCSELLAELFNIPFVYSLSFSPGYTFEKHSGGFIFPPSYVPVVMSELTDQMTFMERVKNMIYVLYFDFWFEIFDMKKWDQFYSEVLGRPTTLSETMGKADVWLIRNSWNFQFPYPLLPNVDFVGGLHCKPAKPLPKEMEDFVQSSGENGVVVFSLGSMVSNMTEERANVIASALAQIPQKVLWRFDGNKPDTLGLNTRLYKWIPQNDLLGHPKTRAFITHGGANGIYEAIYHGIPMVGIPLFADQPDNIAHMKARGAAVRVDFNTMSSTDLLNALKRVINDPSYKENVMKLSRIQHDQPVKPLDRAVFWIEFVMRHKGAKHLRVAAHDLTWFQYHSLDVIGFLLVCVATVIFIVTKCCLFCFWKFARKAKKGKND
Nature of the data set: probe substrate turnover, UHPLC.

The target of data set [7] is T2, UGT1A9. In words: inhibition kinetics, nonlinear fit, Dixon plot, UHPLC.
Data set [8] concerns the target T3, CYP2C19. In words: probe substrate turnover, UHPLC.
A further data set has as its target CYP3A4 (Homo sapiens, UniProt P08684). In words: probe substrate turnover, UHPLC.
Data set [9] addresses T4, CYP2C9. In words: inhibition kinetics, nonlinear fit, Dixon plot, UHPLC.
Data set [10] addresses T8, UGT2B7. The description is as above.

T3 sequence (P33261 whole entry): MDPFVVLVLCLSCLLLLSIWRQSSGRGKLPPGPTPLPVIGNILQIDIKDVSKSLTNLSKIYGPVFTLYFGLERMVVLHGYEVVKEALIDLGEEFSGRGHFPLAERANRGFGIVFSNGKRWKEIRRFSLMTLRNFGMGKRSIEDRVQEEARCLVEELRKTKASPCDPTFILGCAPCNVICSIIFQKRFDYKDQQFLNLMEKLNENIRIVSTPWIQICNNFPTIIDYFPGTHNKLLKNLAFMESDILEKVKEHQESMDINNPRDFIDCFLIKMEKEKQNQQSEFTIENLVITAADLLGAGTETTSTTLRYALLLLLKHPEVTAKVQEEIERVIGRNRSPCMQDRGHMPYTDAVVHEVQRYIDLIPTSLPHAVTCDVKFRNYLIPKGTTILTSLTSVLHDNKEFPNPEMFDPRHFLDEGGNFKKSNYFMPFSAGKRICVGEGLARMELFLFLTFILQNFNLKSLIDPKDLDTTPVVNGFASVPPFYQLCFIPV
T4 sequence (P11712 whole entry): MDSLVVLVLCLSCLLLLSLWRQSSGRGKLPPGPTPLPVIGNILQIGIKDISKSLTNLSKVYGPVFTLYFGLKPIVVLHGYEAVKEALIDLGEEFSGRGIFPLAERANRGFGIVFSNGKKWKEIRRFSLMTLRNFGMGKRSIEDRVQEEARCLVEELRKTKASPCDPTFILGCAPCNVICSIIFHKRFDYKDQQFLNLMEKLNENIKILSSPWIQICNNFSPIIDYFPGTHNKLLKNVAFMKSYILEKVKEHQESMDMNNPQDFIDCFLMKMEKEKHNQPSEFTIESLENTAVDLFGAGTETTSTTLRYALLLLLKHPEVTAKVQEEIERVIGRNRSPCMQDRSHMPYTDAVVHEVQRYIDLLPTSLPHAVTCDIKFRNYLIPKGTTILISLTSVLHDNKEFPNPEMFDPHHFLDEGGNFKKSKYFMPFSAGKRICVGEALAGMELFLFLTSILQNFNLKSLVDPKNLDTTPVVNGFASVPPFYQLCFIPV
CYP3A4, sequence (P08684 2-503): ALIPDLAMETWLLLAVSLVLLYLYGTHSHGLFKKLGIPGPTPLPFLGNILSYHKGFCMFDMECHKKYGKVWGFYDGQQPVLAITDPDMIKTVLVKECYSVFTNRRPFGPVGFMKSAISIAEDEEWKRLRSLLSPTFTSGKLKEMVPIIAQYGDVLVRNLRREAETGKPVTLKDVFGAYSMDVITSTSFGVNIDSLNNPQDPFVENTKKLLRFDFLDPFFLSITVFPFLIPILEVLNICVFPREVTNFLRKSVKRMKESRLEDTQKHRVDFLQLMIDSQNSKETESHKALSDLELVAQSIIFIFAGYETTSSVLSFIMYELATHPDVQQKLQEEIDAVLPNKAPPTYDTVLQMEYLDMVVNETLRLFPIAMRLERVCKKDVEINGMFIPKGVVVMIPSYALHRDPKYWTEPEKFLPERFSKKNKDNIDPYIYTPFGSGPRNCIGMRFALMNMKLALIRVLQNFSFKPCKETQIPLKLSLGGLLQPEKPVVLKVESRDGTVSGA
CYP2E1, sequence (P05181 whole entry): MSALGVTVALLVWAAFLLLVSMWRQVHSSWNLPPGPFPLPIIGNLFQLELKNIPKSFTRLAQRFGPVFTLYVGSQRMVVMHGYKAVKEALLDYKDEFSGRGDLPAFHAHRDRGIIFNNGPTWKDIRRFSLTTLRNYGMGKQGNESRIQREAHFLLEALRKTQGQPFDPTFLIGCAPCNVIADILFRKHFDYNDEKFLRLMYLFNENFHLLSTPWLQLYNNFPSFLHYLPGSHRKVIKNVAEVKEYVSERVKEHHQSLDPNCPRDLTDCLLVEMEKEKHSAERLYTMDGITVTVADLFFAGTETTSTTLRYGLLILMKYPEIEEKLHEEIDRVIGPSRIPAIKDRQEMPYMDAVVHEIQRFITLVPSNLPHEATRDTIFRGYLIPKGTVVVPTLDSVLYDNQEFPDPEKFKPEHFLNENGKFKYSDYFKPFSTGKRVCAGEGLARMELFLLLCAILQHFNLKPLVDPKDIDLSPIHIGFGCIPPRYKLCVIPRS

As for `COc1cc2c(cc1CC=C(C)C)C(=O)C[C@@H](c1ccc(O)cc1)O2` [bavachinin], the “% residual activity at 100 μM” value at CYP1A2 is 91.5%; at CYP2E1, 51.5%; on CYP2C8, 21.5%; at CYP3A4, 24.7%. In addition, the IC50 against UGT1A9 [1] turned out to be 2340 ± 610 nM; against CYP2C9 [3] it was 280 ± 70 nM; against UGT1A1 it was 20700 ± 10600 nM; at CYP2B6 [4], 1680 ± 630 nM; against UGT2B7 [6] it was 2530 ± 620 nM; against CYP2C19 [8], 1380 ± 530 nM. In addition, the Ki at CYP2C19 [2] amounted to 1860 ± 160 nM; on CYP2B6 [5], 1510 ± 120 nM; at UGT1A9 [7] it was 370 ± 40 nM; at CYP2C9 [9], 190 ± 30 nM; at UGT2B7 [10], 1130 ± 120 nM.
